One test has as its system MST3, MST4, YSK1. The experiment in a line: KiNativ, OCI cells live cell. To be noted: labeling site Activation Loop, peptide LADFGVAGQLTDTQIKR
In kind it is cell-based, human.

Test [1] relates to Ba/F3-FLT3-ITD/F691L-GFP+ cells. The experiment in a line: Ba/F3 FLT3-ITD/F691L-GFP+ xenograft model. The class given is in vivo, NSG mice. As to conditions: 60 mg/kg once daily, after 13 days of treatment. The method, then: Engraftment and growth of leukemic cells were monitored by noninvasive bioluminescence imaging in cell line xenograft models, as previously done ([47]). Details on the cell engraftment and dosing in mouse models are provided in the Supplemental Methods.
Luc+ or MOLM13-Res -Luc+ cells, 0.5 million OCI-AML3 -Luc+ cells, and 10,000 Ba/F3-FLT3-ITD/F691L-GFP+ cells. Weekly tumor engraftment of cell line xenograft models were assessed after injection of D-luciferin (150mg/kg i.p.; Gold Biotechnology, Inc, St. Louis, MO) on Xenogen IVIS-200 imaging system (Perkin Elmer, Waltham, MA) or GFP monitoring by peripheral blood via BD LSR II flow cytometer (BD Biosciences, San Jose, CA). Signal intensity was analyzed using Living Image Software (PerkinElmer) or FlowJo v10.0.08 software (FlowJo, LLC, Ashland, OR). Mice were randomized to treatment groups based on signal intensity and leukemia burden. Drug treatments were started on days 3, 7, or 13 after cell injection in OCI-AML3, MOLM13, and MOLM13-Res xenografts, respectively. In murine AML transplantation model, 1 million FLT3-ITD+/-/IDH2-R140Q+/- splenocytes (in house colony) were intravenously injected in male NSG mice. On day 7, mice were started on drug treatments. All mice were observed daily and humanely euthanized when showing signs of progressive disease including, hind limb paralysis, weight loss more than 20%, and lethargy. […]

In a further test the target is ATR (Homo sapiens, UniProt Q13535). The experiment in a line: KiNativ, OCI cells live cell. The class given is cell-based. To be noted: 2 h, labeling site ATP, peptide […].
In the next test the target is MST2 (Homo sapiens, UniProt Q13188). The experiment in a line: KiNativ, OCI cells live cell. The class given is cell-based. As to conditions: 2 h, labeling site Lys1, peptide […].
For the next test, the system named is PKCa, PKCg. The experiment in a line: KiNativ, OCI cells live cell. The class given is cell-based, human. To be noted: labeling site Other, peptide NLIPMDPNGLSDPYVKLK
For a further test, the target named is CSK (Homo sapiens, UniProt P41240). The experiment in a line: KiNativ, OCI cells live cell. In kind it is cell-based.
For a further test, the target named is Wee1 (Homo sapiens, UniProt P30291). The experiment in a line: KiNativ, OCI cells live cell. In kind it is cell-based. To be noted: 2 h, labeling site Lys2, peptide […].
Another test deals with NEK8 (Homo sapiens, UniProt Q86SG6). The experiment in a line: KiNativ, OCI cells live cell. The class given is cell-based. To be noted: 2 h, labeling site Lys2, peptide […].
The target of the next test is T1, FLT3 D835V (Homo sapiens, UniProt P36888, D835V).
T1 construct: purchased Eurofins DiscoverX
The experiment in a line: KdELECT binding assay.

The next test deals with EphB3 (Homo sapiens, UniProt P54753). The experiment in a line: KiNativ, OCI cells live cell. As to conditions: 2 h, labeling site Activation Loop, peptide […]. The class given is cell-based.
For another test, the target named is NEK4 (Homo sapiens, UniProt P51957). The experiment in a line: KiNativ, OCI cells live cell. In kind it is cell-based. To be noted: 2 h, labeling site Lys2, peptide […].
For another test, the target named is FLT3 ITD (Homo sapiens, UniProt P36888, ITD). The experiment in a line: Kinase assay by Reaction Biology. In kind it is biochemical. To be noted: enzymatic kinase assay.
Another test deals with MST1, MST2. The experiment in a line: KiNativ, OCI cells live cell. The class given is cell-based, human. To be noted: labeling site Lys2, peptide DIKAGNILLNTEGHAK
Test [2] concerns MV4-11, MOLM13, and MOLM13-RES cells. The experiment in a line: Apoptosis assay (annexin V). In kind it is cell-based, human. As to conditions: 20 nM, 24 and 48 hours. As for the experimental part: (§1) Apoptosis and CD11b expression assays
(§2) At indicated time points, cells were collected and washed with PBS. CD11b expression was measured using anti-CD11b -APC antibody (BioLegend, San Diego, CA). Each sample was suspended in 100uL of FACS buffer (PBS + 4% FBS) with 1uL of antibody, incubated on ice for 15 minutes in the dark and washed once in PBS. DAPI (final concentration 1ug/mL [ThermoFisher Scientific]) was added to each sample as a viability dye. For apoptosis assay, cells were incubated with annexin V-APC (BioLegend) according to manufacturer’s instructions. CD11b expression and apoptosis were measured by BD LSR II flow cytometer. Two-color cytometry was performed, and data were […]
(§3) points, cells were collected and washed with 0.1% EDTA PBS (Ricca Chemical Company, Arlington, TX) followed by only PBS. Cells were then fixed on ice with ice-cold 70% ethanol for 30 minutes . Cells were either stored at -20°C for up to 1 month or processed immediately. Cells were spun down at 450 x g for 10 minutes and stained

Another test has as its system OCI-AML3 cells. The experiment in a line: Apoptosis assay (annexin V). The class given is cell-based, human. To be noted: 20–50 nM, 72 hours. The method, then: as §1, §2, §3
A further test concerns TAO1, TAO3. The experiment in a line: KiNativ, OCI cells live cell. The class given is cell-based, human. To be noted: labeling site Lys2, peptide DIKAGNILLTEPGQVK
Another test deals with IKKe (Homo sapiens, UniProt Q14164). The experiment in a line: KiNativ, OCI cells live cell. In kind it is cell-based. As to conditions: 2 h, labeling site Lys1, peptide […].
The target in a further test is PEK (Homo sapiens, UniProt Q9NZJ5). The experiment in a line: KiNativ, OCI cells live cell. In kind it is cell-based. To be noted: 2 h, labeling site Lys2, peptide […].
A further test deals with RIPK3 (Homo sapiens, UniProt Q9Y572). The experiment in a line: KiNativ, OCI cells live cell. In kind it is cell-based. As to conditions: 2 h, labeling site Lys2, peptide […].
Test [3] relates to CaMK2a, CaMK2b, CaMK2d, CaMK2g. The experiment in a line: KiNativ, OCI cells live cell. To be noted: labeling site Lys2, peptide DLKPENLLLASK
The class given is cell-based, human.

The target of a further test is MARK2 (Homo sapiens, UniProt Q7KZI7). The experiment in a line: KiNativ, OCI cells live cell. To be noted: 2 h, labeling site Lys1, peptide […]. The class given is cell-based.

Structures are written as SMILES. pIC50, pKd: −log10 of the molar value.

As usually defined, the Inhibition is the relative decrease from the control value, in per cent. A word on the inhibition: it is the drop in the measured response relative to a control, in per cent. Usually pKd stands for the negative decadic logarithm of the Kd, by convention in mol/L. As a reminder, the pIC50 is −log10 of the IC50, conventionally taken in molar units. A lower pIC50 goes with a large IC50.

CSK, sequence (P41240 whole entry): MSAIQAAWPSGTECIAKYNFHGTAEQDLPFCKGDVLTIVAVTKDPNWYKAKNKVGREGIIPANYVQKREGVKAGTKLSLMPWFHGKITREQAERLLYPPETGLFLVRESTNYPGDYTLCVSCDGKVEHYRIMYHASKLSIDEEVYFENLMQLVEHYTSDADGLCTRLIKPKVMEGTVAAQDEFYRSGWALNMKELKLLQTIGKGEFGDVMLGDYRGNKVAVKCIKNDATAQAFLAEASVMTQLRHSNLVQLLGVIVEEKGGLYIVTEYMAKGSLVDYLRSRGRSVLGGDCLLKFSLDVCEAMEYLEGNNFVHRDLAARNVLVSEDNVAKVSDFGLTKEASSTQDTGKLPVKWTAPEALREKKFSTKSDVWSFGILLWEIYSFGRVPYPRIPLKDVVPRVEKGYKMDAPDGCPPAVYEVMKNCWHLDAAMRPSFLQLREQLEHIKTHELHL
IKKe, sequence (Q14164 whole entry): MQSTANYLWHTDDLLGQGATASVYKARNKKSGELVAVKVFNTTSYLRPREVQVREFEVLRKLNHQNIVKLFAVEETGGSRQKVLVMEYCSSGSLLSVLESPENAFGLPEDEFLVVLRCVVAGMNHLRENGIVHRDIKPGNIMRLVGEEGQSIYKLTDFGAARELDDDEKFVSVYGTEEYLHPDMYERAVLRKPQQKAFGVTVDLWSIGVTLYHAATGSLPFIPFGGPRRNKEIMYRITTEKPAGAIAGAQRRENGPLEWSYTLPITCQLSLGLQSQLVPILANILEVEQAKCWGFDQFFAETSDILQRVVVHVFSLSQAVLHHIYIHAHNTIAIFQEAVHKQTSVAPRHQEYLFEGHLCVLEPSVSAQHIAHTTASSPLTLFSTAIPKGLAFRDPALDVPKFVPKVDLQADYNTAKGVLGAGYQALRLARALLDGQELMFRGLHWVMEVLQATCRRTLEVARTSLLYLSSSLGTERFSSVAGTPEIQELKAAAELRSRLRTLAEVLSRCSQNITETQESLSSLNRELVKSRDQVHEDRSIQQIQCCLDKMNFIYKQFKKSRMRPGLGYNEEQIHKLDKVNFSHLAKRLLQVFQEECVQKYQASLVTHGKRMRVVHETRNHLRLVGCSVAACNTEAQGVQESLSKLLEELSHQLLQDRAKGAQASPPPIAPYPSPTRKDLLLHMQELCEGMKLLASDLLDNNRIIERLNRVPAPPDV
PEK, sequence (Q9NZJ5 30-1116): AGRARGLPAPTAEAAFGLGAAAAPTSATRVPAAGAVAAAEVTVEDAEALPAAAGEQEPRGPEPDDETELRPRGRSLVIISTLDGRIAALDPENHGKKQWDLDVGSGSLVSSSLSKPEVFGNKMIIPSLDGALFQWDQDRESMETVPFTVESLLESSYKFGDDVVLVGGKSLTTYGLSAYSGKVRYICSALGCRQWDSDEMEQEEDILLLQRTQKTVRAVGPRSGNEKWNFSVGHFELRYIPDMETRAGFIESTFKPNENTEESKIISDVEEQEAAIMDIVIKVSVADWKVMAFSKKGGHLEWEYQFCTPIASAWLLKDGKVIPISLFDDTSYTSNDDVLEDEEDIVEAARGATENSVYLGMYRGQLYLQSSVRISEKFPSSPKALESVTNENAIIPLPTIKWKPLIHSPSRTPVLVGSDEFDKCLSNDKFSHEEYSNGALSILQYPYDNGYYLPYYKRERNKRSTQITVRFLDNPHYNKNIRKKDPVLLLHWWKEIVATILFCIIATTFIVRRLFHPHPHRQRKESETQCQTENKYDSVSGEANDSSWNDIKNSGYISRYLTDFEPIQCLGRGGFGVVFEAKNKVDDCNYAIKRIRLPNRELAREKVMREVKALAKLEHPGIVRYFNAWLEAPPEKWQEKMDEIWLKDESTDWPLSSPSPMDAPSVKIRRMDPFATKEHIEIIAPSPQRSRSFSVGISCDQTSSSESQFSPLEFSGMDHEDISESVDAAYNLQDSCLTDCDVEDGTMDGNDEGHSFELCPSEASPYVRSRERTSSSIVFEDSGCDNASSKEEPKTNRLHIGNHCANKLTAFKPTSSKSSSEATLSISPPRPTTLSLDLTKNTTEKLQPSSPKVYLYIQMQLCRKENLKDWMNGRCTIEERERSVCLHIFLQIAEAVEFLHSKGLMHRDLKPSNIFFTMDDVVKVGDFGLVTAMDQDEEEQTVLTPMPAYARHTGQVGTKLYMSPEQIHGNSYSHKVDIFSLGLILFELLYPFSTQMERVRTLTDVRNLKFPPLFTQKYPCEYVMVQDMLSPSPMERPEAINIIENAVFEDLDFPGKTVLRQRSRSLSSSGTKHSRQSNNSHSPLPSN
RIPK3, sequence (Q9Y572 whole entry): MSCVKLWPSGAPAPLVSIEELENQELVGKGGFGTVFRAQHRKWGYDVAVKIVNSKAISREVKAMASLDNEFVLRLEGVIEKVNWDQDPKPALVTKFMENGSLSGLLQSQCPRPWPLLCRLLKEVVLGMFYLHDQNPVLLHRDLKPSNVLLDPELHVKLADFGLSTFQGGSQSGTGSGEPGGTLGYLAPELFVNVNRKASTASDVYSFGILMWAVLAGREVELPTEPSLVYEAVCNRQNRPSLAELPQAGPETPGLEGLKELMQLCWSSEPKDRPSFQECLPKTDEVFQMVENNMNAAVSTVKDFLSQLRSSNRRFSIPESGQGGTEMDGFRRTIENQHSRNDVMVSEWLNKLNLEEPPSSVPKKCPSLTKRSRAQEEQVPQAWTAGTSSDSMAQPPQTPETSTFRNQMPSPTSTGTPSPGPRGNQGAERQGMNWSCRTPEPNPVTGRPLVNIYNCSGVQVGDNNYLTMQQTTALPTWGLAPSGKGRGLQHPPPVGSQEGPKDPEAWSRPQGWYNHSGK
NEK4, sequence (P51957 whole entry): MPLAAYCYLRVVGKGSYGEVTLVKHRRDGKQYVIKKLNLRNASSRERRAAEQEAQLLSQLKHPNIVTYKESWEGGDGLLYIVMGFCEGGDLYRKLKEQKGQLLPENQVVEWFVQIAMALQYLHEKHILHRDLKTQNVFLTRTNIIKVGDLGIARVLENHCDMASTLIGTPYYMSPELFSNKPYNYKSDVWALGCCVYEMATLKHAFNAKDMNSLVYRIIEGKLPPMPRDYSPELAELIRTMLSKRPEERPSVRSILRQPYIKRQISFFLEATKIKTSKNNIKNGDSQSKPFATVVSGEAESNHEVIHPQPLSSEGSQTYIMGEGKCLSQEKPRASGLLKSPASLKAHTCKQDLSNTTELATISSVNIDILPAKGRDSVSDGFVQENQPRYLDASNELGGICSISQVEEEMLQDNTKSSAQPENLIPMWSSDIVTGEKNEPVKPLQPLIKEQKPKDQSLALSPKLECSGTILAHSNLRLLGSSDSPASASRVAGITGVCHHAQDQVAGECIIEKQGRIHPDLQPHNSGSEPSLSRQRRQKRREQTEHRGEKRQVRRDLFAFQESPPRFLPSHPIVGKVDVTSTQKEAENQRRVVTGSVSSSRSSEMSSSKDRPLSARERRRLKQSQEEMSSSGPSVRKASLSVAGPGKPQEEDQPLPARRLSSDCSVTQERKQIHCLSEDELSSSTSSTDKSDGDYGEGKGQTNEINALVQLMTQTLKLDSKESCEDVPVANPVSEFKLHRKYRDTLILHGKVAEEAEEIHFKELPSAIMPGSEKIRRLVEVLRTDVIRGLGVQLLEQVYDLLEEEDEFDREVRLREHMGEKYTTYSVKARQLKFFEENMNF
MARK2, sequence (Q7KZI7 whole entry): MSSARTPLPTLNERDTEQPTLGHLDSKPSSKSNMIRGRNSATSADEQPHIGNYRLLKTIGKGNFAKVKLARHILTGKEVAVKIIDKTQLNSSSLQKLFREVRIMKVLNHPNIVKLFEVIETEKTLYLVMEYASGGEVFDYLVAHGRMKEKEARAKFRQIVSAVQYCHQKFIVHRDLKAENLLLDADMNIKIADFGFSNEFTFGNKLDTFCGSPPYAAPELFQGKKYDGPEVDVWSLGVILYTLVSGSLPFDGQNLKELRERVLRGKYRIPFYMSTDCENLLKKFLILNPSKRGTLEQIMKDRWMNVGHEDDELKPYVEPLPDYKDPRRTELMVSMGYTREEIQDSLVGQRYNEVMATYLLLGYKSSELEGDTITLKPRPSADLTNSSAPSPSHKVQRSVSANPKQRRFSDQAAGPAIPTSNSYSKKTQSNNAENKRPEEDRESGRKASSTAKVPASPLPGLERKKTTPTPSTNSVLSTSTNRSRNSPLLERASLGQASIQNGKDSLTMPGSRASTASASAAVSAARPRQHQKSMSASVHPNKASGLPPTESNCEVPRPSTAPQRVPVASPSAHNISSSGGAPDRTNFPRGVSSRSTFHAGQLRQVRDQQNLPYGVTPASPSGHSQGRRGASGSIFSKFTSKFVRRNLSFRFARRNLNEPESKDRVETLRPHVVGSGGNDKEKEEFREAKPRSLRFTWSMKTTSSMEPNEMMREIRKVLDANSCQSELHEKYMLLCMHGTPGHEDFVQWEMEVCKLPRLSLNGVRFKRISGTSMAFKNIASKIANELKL
MST2, sequence (Q13188 whole entry): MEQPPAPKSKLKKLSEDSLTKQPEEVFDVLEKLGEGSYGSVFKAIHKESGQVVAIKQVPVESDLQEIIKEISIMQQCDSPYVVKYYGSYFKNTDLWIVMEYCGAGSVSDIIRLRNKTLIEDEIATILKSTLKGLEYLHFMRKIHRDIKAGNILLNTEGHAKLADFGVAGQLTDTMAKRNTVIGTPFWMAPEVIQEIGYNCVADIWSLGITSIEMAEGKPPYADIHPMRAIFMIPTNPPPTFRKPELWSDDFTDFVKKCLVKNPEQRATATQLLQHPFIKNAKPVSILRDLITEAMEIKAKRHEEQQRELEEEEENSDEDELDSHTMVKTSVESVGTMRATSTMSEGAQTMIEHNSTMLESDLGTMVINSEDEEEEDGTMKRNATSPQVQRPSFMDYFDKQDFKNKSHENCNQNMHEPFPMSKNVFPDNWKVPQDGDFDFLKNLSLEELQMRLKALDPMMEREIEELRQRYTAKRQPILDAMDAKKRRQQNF

`CN1CCN(Cc2ccc(Nc3ncc(Cl)c(Nc4ccccc4S(=O)(=O)N(C)C)n3)cc2)CC1` [TP-0903]: the Inhibition was -57.1% in the test with MST3, MST4, YSK1; -15.0% in the test on PKCa, PKCg; 11.9% on CSK (labeling site Activation Loop, peptide VSDFGLTKEASSTQDTGKLPVK); 0.379% on CSK (labeling site Lys1, peptide VAVKCIK); 35.6% in the test with MST1, MST2; 73.9% in the test on TAO1, TAO3. For the same compound, the Inhibition in test [3] is 17.4%. The “Peripheral blood GFP signal compared with gilteritinib” value in test [1] is reported as “significantly lower”. Moreover, the inhibition at 0.1 µM is 13% on ATR; 7.3% against MST2; 67.8% against Wee1; -6.8% at NEK8; 17.1% at EphB3; -12.3% against NEK4. For the same compound, the inhibition at 0.1 µM is 30.5% against IKKe, -9.6% at PEK, 2.8% on RIPK3 and 37.7% at MARK2. The compound further showed a pKd at FLT3 D835V of 8.68. This compound had a pIC50 against FLT3 ITD of 8.41. For the same compound, the Apoptosis entry (in test [2]; in the test on OCI-AML3 cells) was “significant apoptosis” in each case.

Values taken from article PMC7714403 (JCI Insight, 2020).
